The values that follow are results of earlier work, collected in patent US8415449B2, “Bioresorbable polymers synthesized from monomer analogs of natural metabolites” (Rutgers, The State University of New Jersey, priority 2009, dated 2013).

For the series the following is noted: as part of the clinical evaluation of the sebacic acid anhydride copolymer.

In the case of `O=C(O)CCCCCCCCC(=O)O` [sebacic acid], the toxicity finding result was “nontoxic”.
